From patent publication US9273057B2 (Bristol-Myers Squibb Company, priority 2012, dated 2016) come the findings set out here.

For orientation: IC50 means the concentration at which inhibition is half-maximal.

pIC50: −log10 of the molar value. Structures can show the parent of a compound that is named as a salt.

Sequence of CK2A1 (CK2α/β) (P68400 whole entry, species assumed): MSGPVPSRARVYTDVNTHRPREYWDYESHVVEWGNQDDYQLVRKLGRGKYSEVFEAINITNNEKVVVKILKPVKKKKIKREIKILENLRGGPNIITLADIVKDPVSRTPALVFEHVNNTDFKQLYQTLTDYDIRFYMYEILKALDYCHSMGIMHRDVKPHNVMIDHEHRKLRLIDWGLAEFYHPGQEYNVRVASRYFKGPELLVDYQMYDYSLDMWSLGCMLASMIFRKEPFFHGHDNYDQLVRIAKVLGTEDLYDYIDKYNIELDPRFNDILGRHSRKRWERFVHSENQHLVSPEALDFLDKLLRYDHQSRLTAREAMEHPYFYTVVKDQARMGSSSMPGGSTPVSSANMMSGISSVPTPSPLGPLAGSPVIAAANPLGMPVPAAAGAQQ
Sequence of CK2A1 (CK2α/β) (P67870 whole entry partner, species assumed): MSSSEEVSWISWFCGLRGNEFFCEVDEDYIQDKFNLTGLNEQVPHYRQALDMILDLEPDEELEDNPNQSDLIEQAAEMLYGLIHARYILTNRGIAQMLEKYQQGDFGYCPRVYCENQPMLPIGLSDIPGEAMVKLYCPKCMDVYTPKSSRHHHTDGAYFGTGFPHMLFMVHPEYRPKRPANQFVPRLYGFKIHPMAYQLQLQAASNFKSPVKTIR

The first test addresses CK2A1 (CK2α/β) (Homo sapiens, UniProt P68400). As to the kind of experiment: CK2 kinase assay, CK2A1 (CK2α/β). The test is classed as biochemical. As to conditions: CK2A1 (CK2α/β) (IC50, nM), Table A.
Regarding `CCNc1nc(Nc2cc(C#N)cc(N3CC[C@@H](NC(=O)OC)[C@H](OC(=O)Cc4ccc(OP(=O)(O)O)cc4)C3)c2Cl)nn2c(C#N)cnc12` [Example 344, (3R,4R)-1-(2-chloro-5-cyano-3-((7-cyano-4-(ethylamino)imidazo[2,1-f][1,2,4]triazin-2-yl)amino)phenyl)-4-((methoxycarbonyl)amino)piperidin-3-yl 2-(4-(phosphonooxy)phenyl)acetate], the concentration for half-maximal inhibition (IC50) stood at 3 nM.

The same test, now with this note: Table A; read-out: CK2A1 (CK2α/β) (IC50).
With `CCNc1nc(Nc2cc(C#N)cc(N3CC[C@@H](NC(=O)OC)[C@H](OC(=O)[C@@H](N)CCCNC(=N)N)C3)c2Cl)nn2c(C#N)cnc12` [Example 808, (S)-(3R,4R)-1-(2-chloro-5-cyano-3-((7-cyano-4-(ethylamino)imidazo[2,1-f][1,2,4]triazin-2-yl)amino)phenyl)-4-((methoxycarbonyl)amino)piperidin-3-yl 2-amino-5-guanidinopentanoate trihydrochloride], the pIC50 was 9.36.

As for `CC(C)(C)[C@H](N)C(=O)N1CC(N2CCN(c3cc(C#N)cc(Nc4nc(NC5CC5)c5ncc(C#N)n5n4)c3Cl)CC2)C1` [Example 505, 2-{[3-(4-{1-[(2S)-2-amino-3,3-dimethylbutanoyl]azetidin-3-yl}piperazin-1-yl)-2-chloro-5-cyanophenyl]amino}-4-(cyclopropylamino)imidazo[2,1-f][1,2,4]triazine-7-carbonitrile], the pIC50 is 8.27.

For the compound `CCNc1nc(Nc2cc(C#N)cc(NCCO)c2Cl)nn2c(C#N)cnc12` [Example 630, 2-((2-chloro-5-cyano-3-((2-hydroxyethyl)amino)phenyl)amino)-4-(ethylamino)imidazo[2,1-f][1,2,4]triazine-7-carbonitrile], the pIC50 was 9.17. Take `CCNc1nc(Nc2cc(C#N)cc(N3CC[C@@H](NC(=O)OC)C(=O)C3)c2Cl)nn2c(C#N)cnc12` [Example 740, (R)-methyl (1-(2-chloro-5-cyano-3-((7-cyano-4-(ethylamino)imidazo[2,1-f][1,2,4]triazin-2-yl)amino)phenyl)-3-oxopiperidin-4-yl)carbamate]: the pIC50 was 8.76. Same read-out and setting: to `CCNc1nc(Nc2cc(C#N)cc(C3CCN(C4COC4)CC3)c2Cl)nn2c(C#N)cnc12` [Example 349, 2-((2-chloro-5-cyano-3-(1-(oxetan-3-yl)piperidin-4-yl)phenyl)amino)-4-(ethylamino)imidazo[2,1-f][1,2,4]triazine-7-carbonitrile] belongs 8.56; to `CN(C)C(=O)C1CN(c2cc(C#N)cc(Nc3nc(NC4CC4)c4ncc(C#N)n4n3)c2Cl)CCN1C1COC1` (centres unmarked) [Example 564, 4-(2-chloro-5-cyano-3-((7-cyano-4-(cyclopropylamino)imidazo[2,1-f][1,2,4]triazin-2-yl)amino)phenyl)-N,N-dimethyl-1-(oxetan-3-yl)piperazine-2-carboxamide], 8.31. On the same count and under the same terms, to `N#Cc1cc(Nc2nc(NC3CC3)c3ncc(C#N)n3n2)c(Cl)c(N2CCN(C(=O)CCN3CCCCC3)CC2)c1` [Example 82, 2-((2-chloro-5-cyano-3-(4-(3-(1-piperidinyl)propanoyl)-1-piperazinyl)phenyl)amino)-4-(cyclopropylamino) imidazo[2,1-f][1,2,4] triazine-7-carbonitrile] belongs 9.10; to `CN(CCC#N)Cc1cc(C#N)cc(Nc2nc(NC3CC3)c3ncc(C#N)n3n2)c1Cl` [Example 464, 2-[(2-chloro-5-cyano-3-{[(2-cyanoethyl)(methyl)amino]methyl}phenyl)amino]-4-(cyclopropylamino)imidazo[2,1-f][1,2,4]triazine-7-carbonitrile], 9.24; to `N#Cc1cnc2c(NC3CC3)nc(Nc3cc(OC(F)F)cc(N4CCN(C5CNC5)CC4)c3Cl)nn12` [Example 560, 2-((3-(4-(azetidin-3-yl)piperazin-1-yl)-2-chloro-5-(difluoromethoxy)phenyl)amino)-4-(cyclopropylamino)imidazo[2,1-f][1,2,4]triazine-7-carbonitrile], 8.94.

Take `CCNC(=O)NCC1CN(c2cc(C#N)cc(Nc3nc(NC4CC4)c4ncc(C#N)n4n3)c2Cl)CCO1` (centres unmarked) [Example 711, 1-{[4-(2-chloro-5-cyano-3-{[7-cyano-4-(cyclopropylamino)imidazo[2,1-f][1,2,4]triazin-2-yl]amino}phenyl)morpholin-2-yl]methyl}-3-ethylurea]: the pIC50 is 8.58. The same measure, in the same setting: to `CN1CCN(CC(O)c2cc(C#N)cc(Nc3nc(NC4CC4)c4ncc(C#N)n4n3)c2Cl)CC1` (centres unmarked) [Example 686, 2-((2-chloro-5-cyano-3-(1-hydroxy-2-(4-methylpiperazin-1-yl)ethyl)phenyl)amino)-4-(cyclopropylamino)imidazo[2,1-f][1,2,4]triazine-7-carbonitrile] belongs 8.89; to `N#Cc1cc(CN2CCC(C(N)=O)CC2)c(Cl)c(Nc2nc(NC3CC3)c3ncc(C#N)n3n2)c1` [Example 471, 1-[(2-chloro-5-cyano-3-{[7-cyano-4-(cyclopropylamino)imidazo[2,1-f][1,2,4]triazin-2-yl]amino}phenyl)methyl]piperidine-4-carboxamide], 9.06. On the same count and under the same terms, to `N#CCC1(N2CCC(c3cc(C#N)cc(Nc4nc(NC5CC5)c5ncc(C#N)n5n4)c3Cl)CC2)COC1` [Example 378, 2-((2-chloro-5-cyano-3-(1-(3-(cyanomethyl)oxetan-3-yl)piperidin-4-yl)phenyl)amino)-4-(cyclopropylamino)imidazo[2,1-f][1,2,4]triazine-7-carbonitrile] belongs 9.09; to `CCNc1nc(Nc2cc(C#N)cc(N3CCN(C4(CCO)COC4)CC3)c2Cl)nn2c(C#N)cnc12` [Example 543, 2-((2-chloro-5-cyano-3-(4-(3-(2-hydroxyethyl)oxetan-3-yl)piperazin-1-yl)phenyl)amino)-4-(ethylamino)imidazo[2,1-f][1,2,4]triazine-7-carbonitrile], 8.96; to `CC(CCO)c1cc(C#N)cc(Nc2nc(NC3CC3)c3ncc(C#N)n3n2)c1Cl` (centres unmarked) [Example 574, 2-((2-chloro-5-cyano-3-(4-hydroxybutan-2-yl)phenyl)amino)-4-(cyclopropylamino)imidazo[2,1-f][1,2,4]triazine-7-carbonitrile], 9.36. On the same count and under the same terms, to `N#Cc1cc(Nc2nc(NC3CC3)c3ncc(C#N)n3n2)c(Cl)c(N2CCN([C@@H]3COC[C@H]3O)CC2)c1` (racemic) [Example 59, (+/−) 2-((2-chloro-5-cyano-3-(4-((3R,4S)-4-hydroxytetrahydro-3-furanyl)-1-piperazinyl)phenyl)amino)-4-(cyclopropylamino) imidazo[2,1-f][1,2,4] triazine-7-carbonitrile] belongs 9.23; to `N#Cc1cc(CN2CCS(=O)(=O)CC2)c(Cl)c(Nc2nc(NC3CC3)c3ncc(C#N)n3n2)c1` [Example 671, 2-((2-chloro-5-cyano-3-((1,1-dioxidothiomorpholino)methyl)phenyl)amino)-4-(cyclopropylamino)imidazo[2,1-f][1,2,4]triazine-7-carbonitrile], 8.77. `CC(=O)N[C@@H]1CN(c2cc(C#N)cc(Nc3nc(NC4CC4)c4ncc(C#N)n4n3)c2Cl)CC[C@H]1O` (racemic) [Example 190, (+/−)-N-((3R,4R)-1-(2-chloro-5-cyano-3-((7-cyano-4-(cyclopropylamino)imidazo[2,1-f][1,2,4]triazin-2-yl)amino)phenyl)-4-hydroxypiperidin-3-yl)acetamide]: the pIC50 is 9.32.

Take `N#Cc1cc(Nc2nc(NC3CC3)c3ncc(C#N)n3n2)c(Cl)c(C(O)CO)c1` (racemic) [Example 681, (+/−)-2-((2-chloro-5-cyano-3-(1,2-dihydroxyethyl)phenyl)amino)-4-(cyclopropylamino)imidazo[2,1-f][1,2,4]triazine-7-carbonitrile]: the pIC50 was 9.19. Same read-out and setting: the result for `N#Cc1cnc2c(NC3CC3)nc(Nc3cc(C(F)F)cc(N4CCNCC4)c3Cl)nn12` [Example 246, 2-((2-chloro-5-(difluoromethyl)-3-(1-piperazinyl)phenyl)amino)-4-(cyclopropylamino)imidazo[2,1-f][1,2,4]triazine-7-carbonitrile] reads 9.02. Still for that read-out and setting: the result for `CCNc1nc(Nc2cc(C#N)cc(N3CC[C@@H](NC(=O)OCC)[C@H](O)C3)c2Cl)nn2c(C#N)cnc12` [Example 332, ethyl ((3R,4R)-1-(2-chloro-5-cyano-3-((7-cyano-4-(ethylamino)imidazo[2,1-f][1,2,4]triazin-2-yl)amino)phenyl)-3-hydroxypiperidin-4-yl)carbamate] reads 9.39; that for `N#Cc1cc(Nc2nc(NC3CC3)c3ncc(C#N)n3n2)c(Cl)c(N2C[C@@H]3CCCN(C4COC4)[C@@H]3C2)c1` [Example 778, 2-((2-chloro-5-cyano-3-((4aS,7aS)-1-(oxetan-3-yl)hexahydro-1H-pyrrolo[3,4-b]pyridin-6(2H)-yl)phenyl)amino)-4-(cyclopropylamino)imidazo[2,1-f][1,2,4]triazine-7-carbonitrile], 8.96; that for `CC1(N)CCN(c2cc(C(F)F)cc(Nc3nc(NC4CC4)c4ncc(C#N)n4n3)c2Cl)CC1` [Example 245, 2-((3-(4-amino-4-methyl-1-piperidinyl)-2-chloro-5-(difluoromethyl)phenyl)amino)-4-(cyclopropylamino)imidazo[2,1-f][1,2,4]triazine-7-carbonitrile], 9.29. On the same count and under the same terms, to `CN1CCN(c2cc(C#N)cc(Nc3nc(NC4CC4)c4ncc(C#N)n4n3)c2Cl)CC1C(C)(C)O` (racemic) [Example 34, (+/−) 2-((2-chloro-5-cyano-3-(3-(1-hydroxy-1-methylethyl)-4-methyl-1-piperazinyl)phenyl)amino)-4-(cyclopropylamino)imidazo [2,1-f][1,2,4]triazine-7-carbonitrile] belongs 9.04; to `CC1(C(=O)N2CCC(c3cc(C#N)cc(Nc4nc(NC5CC5)c5ncc(C#N)n5n4)c3Cl)CC2)COC1` [Example 233, 2-((2-chloro-5-cyano-3-(1-((3-methyl-3-oxetanyl)carbonyl)-4-piperidinyl)phenyl)amino)-4-(cyclopropylamino)imidazo[2,1-f][1,2,4]triazine-7-carbonitrile], 9.24.
